Test results from patent publication US11752139B2, “Therapeutic combinations of orally administered irinotecan and a p-gp inhibitor for the treatment of cancer” (priority 2018, dated 2023).
Read-outs that look alike come from different tables or passages of the source.

What was measured:
[1] = Study 1: maximum tolerated dose of orally administered irinotecan with Compound A; format: in vivo, human; conditions: dosed five days of week one during a three-week cycle
Procedure: Orally administered irinotecan was determined to have a maximum tolerated dose (MTD) of 20 mg/m^2 per day when dosed five days of week one during a three-week cycle.

[2] = Study 1: pharmacokinetics of oral irinotecan and M1, 5-30 mg/m^2 per day for five days during a 21 day cycle
[3] = clinical; conditions: human, in vivo, po, N = 3; for AUC(0-t): AUC24 h
Procedure: (§1) A phase 1 dose escalation study was performed to determine the MTD and DLT of orally administered irinotecan in combination with 15 mg (on day 1 of a 21-day cycle) of HM30181A. The study was performed on cohorts of 3-6 subjects with advanced malignancies. Subjects had Hb (hemoglobin count) 9 gm/dL, ANC (absolute neutrophil count) 1.5×10^9/L, and platelets 100×10^9/L, as well as adequate hepatic and renal function, and ECOG (Eastern Cooperative Oncology Group Performance Status) 0-1, and were not homozygous for UGT1A1*28.

[4] = clinical; conditions: human, in vivo
[5] = human, in vivo
[6] = human, in vivo; remark: listed apart in the source
[7] = tested on: advanced malignancies; assay: Phase 1 dose escalation study of oral irinotecan with 15 mg HM30181A: response; format: in vivo, human; conditions: subjects with advanced malignancies; 15 mg HM30181A + oral irinotecan
Procedure: as §1

[8] = Study 2: pharmacokinetics of oral irinotecan and M1, 5-20 mg/m^2 per day for 10 days during a 21 day cycle; conditions: for AUC / Cmax: human, in vivo, oral, mean
[9] = clinical; conditions: human, in vivo; remark: listed apart in the source
[10] = Simple Emax model of exposure (AUCinf, Cmax) versus dose
[11] = Study 2: maximum tolerated dose of orally administered irinotecan with Compound A; format: in vivo, human; conditions: dosed five days of week one and week two during a three-week cycle
Procedure: Orally administered irinotecan was determined to have a MTD of 10 mg/m^2 per day when dosed five days of week one and week two during a three-week cycle.

[12] = dose 240 mg/m^2 oral irinotecan + 15 mg HM30181A
[13] = dose 280 mg/m^2 oral irinotecan + 15 mg HM30181A
[14] = dose 320 mg/m^2 oral irinotecan + 15 mg HM30181A
[15] = 15 mg HM30181A + 20-320 mg/m^2 oral irinotecan, day 1 of 21-day cycle, 30 patients
[16] = 15 mg HM30181A + 20-320 mg/m^2 oral irinotecan, 30 patients
[17] = 320 mg/m^2 dose level, with 15 mg HM30181A

CCc1c2c(nc3ccc(OC(=O)N4CCC(N5CCCCC5)CC4)cc13)-c1cc3c(c(=O)n1C2)COC(=O)[C@]3(O)CC [oral irinotecan, (4S)-4,11-Diethyl-4-hydroxy-3,14-dioxo-3,4,12,14-tetrahydro-1H-pyrano[3′,4′:6,7]indolizino[1,2-b]quinolin-9-yl 1,4′-bipiperidine-1′-carboxylate, reference compound]
maximum tolerated dose (MTD) [1]: 20 mg/m^2 per day | pharmacokinetics versus dose ([2]; 5-30 mg/m^2 per day for five days during a 21 day cycle): increased proportionally with dose | AUC ([2]; human, in vivo, 20 mg/m2): 412 ng·h/mL | AUC(0-t) [3, 12]: 6960 ng·h/mL | AUC(0-t) [3, 13]: 6040 ng·h/mL | AUC(0-t) [3, 14]: 11300 ng·h/mL | Cmax [3, 12]: 798 ng/mL | Cmax [3, 13]: 763 ng/mL | Cmax [3, 14]: 1060 ng/mL | Tmax [3, 12]: 3 h | Tmax [3, 13]: 2 h | Tmax [3, 14]: 3 h | AUC ([4]; 5 mg/m2, AUC24): 50.9 ng·h/mL | Cmax ([4]; 5 mg/m2, Cmax): 6.52 ng/mL | AUC ([4]; 10 mg/m2, AUC24): 110 ng·h/mL | Cmax ([4]; 10 mg/m2, Cmax): 14 ng/mL | AUC ([4]; 15 mg/m2, AUC24): 194 ng·h/mL | Cmax ([4]; 15 mg/m2, Cmax): 20.6 ng/mL | AUC ([4]; 20 mg/m2, AUC24): 277 ng·h/mL | Cmax ([4]; 20 mg/m2, Cmax): 31.9 ng/mL | AUC ([4]; 25 mg/m2, AUC24): 703 ng·h/mL | Cmax ([4]; 25 mg/m2, Cmax): 63.6 ng/mL | AUC ([4]; 30 mg/m2, AUC24): 736 ng·h/mL | Cmax ([4]; 30 mg/m2, Cmax): 57.3 ng/mL | Acute cholinergic diarrhea (15 mg HM30181A + 20-320 mg/m^2 oral irinotecan): not observed | Treatment-related Grade 3-4 AEs, number of subjects [15]: 12 subjects | Treatment-related Grade 3-4 AEs, share of subjects [15]: 40% | SAEs nausea or vomiting, number of subjects [16]: 4 subjects | Treatment-related SAEs, number of patients [16]: 6 patients | vomiting (most common AEs), share of subjects [16]: 20% | DLTs, number of subjects [17]: 2 subjects | kind of DLTs [17]: neutropenia and C. Difficile diarrhea | Cmax compared with IV dosed irinotecan [5]: below the range for 125 mg/m^2 of IV dosed irinotecan | dose at which Cmax began to plateau [5]: 200 mg/m^2 | Tmax ([5]; po, 280 mg/m2): 1 h | AUC24 ([6]; 5 mg/m2): 64.59 ng·h/mL | AUC24 ([6]; 10 mg/m2): 209.12 ng·h/mL | AUC24 ([6]; 15 mg/m2): 379.56 ng·h/mL | AUC24 ([6]; 25 mg/m2): 481.39 ng·h/mL | AUC24 ([6]; 30 mg/m2): 454.54 ng·h/mL | response of stable disease [7]: 9 out of 21 | pharmacokinetics versus dose ([8]; 5-20 mg/m^2 per day for 10 days during a 21 day cycle): increased proportionally with dose | AUC ([8]; 5 mg/m2, AUC24, Day 1, dose group 5 mg/m^2): 72.1 ng·h/mL | AUC ([8]; 5 mg/m2, AUC24, Day 12, dose group 5 mg/m^2): 95.1 ng·h/mL | Cmax ([8]; 5 mg/m2, Cmax, Day 1, dose group 5 mg/m^2): 9.65 ng/mL | AUC ([8]; 10 mg/m2, AUC24, Day 1, dose group 10 mg/m^2): 123 ng·h/mL | AUC ([8]; 10 mg/m2, AUC24, Day 12, dose group 10 mg/m^2): 186 ng·h/mL | Cmax ([8]; 10 mg/m2, Cmax, Day 1, dose group 10 mg/m^2): 15.5 ng/mL | Cmax ([8]; 10 mg/m2, Cmax, Day 12, dose group 10 mg/m^2): 17.9 ng/mL | AUC ([8]; 15 mg/m2, AUC24, Day 1, dose group 15 mg/m^2): 284 ng·h/mL | AUC ([8]; 15 mg/m2, AUC24, Day 12, dose group 15 mg/m^2): 281 ng·h/mL | Cmax ([8]; 15 mg/m2, Cmax, Day 1, dose group 15 mg/m^2): 26.9 ng/mL | Cmax ([8]; 15 mg/m2, Cmax, Day 12, dose group 15 mg/m^2): 38.1 ng/mL | AUC ([8]; 20 mg/m2, AUC24, Day 1, dose group 20 mg/m^2): 271 ng·h/mL | AUC ([8]; 20 mg/m2, AUC24, Day 12, dose group 20 mg/m^2): 442 ng·h/mL | Cmax ([8]; 20 mg/m2, Cmax, Day 1, dose group 20 mg/m^2): 28.8 ng/mL | Cmax ([8]; 20 mg/m2, Cmax, Day 12, dose group 20 mg/m^2): 64.6 ng/mL | Cmax ([9]; 240 mg/m2, Observed Mean (Cmax)): 798 ng/mL | AUC0-inf ([9]; 240 mg/m2, Observed Mean AUCinf): 8150 ng·h/mL | Cmax ([9]; 280 mg/m2, Observed Mean (Cmax)): 763 ng/mL | AUC0-inf ([9]; 280 mg/m2, Observed Mean AUCinf): 6980 ng·h/mL | Cmax ([9]; 320 mg/m2, Observed Mean (Cmax)): 1060 ng/mL | AUC0-inf ([9]; 320 mg/m2, Observed Mean AUCinf): 14200 ng·h/mL | Cmax ([9]; po, 240 mg/m2, Cmax): 668 ng/mL | Tmax ([9]; po, 240 mg/m2, Tmax): 3 h | AUC ([9]; po, 280 mg/m2, AUC24): 5020 ng·h/mL | AUC0-inf ([9]; po, 280 mg/m2, AUCinf): 6010 ng·h/mL | AUC(0-t) ([9]; po, 280 mg/m2, AUClast): 5890 ng·h/mL | Cmax ([9]; po, 280 mg/m2, Cmax): 736 ng/mL | Tmax ([9]; po, 320 mg/m2, Tmax): 3 h | Predicted AUCinf ([10]; dose 200 mg/m^2): 6992 | Predicted Cmax ([10]; dose 200 mg/m^2): 549 | Predicted AUCinf ([10]; dose 240 mg/m^2): 7679 | Predicted Cmax ([10]; dose 240 mg/m^2): 600 | Predicted AUCinf ([10]; dose 280 mg/m^2): 8253 | Predicted Cmax ([10]; dose 280 mg/m^2): 643 | Predicted AUCinf ([10]; dose 320 mg/m^2): 10189 | Predicted Cmax ([10]; dose 320 mg/m^2): 752 | MTD [11]: 10 mg/m^2 per day
